Columns and labels:
[1] = tested on: Onchocerca volvulus L3 larvae; assay: Onchocerca volvulus L3 larval molting assay; type: cell-based; conditions: O. volvulus, 1 μM
Method: (§1) The first three analogs from the benzimidazole 5-carboxylic acid, namely 7a (from 6-aminobenzoxaborole), 8a (from 6-aminomethyl-3,3-dimethylbenzoxaborole), and 8b (from 3-aminomethylbenzoxaborole), were prepared and tested in an Onchocerca volvulus L3 larval molting assay[34],[35] and a mammalian G2/M arrest assay[36] to evaluate antifilarial activity and selectivity, respectively (Table 1). O. volvulus is the causative agent of river blindness, and the L3 molting assay is the only widely available and reproducible assay of this filariid, the target of novel macrofilaricidal drugs.[34],[35] Other animal models (e.g., Brugia in gerbils) recapitulate aspects of lymphatic filariasis and are also used as surrogate screens for O. volvulus infections. Of the three compounds tested, 8a emerged as the most attractive compound on the basis of potency and selectivity.
Plates were incubated at 37 °C in a 5% CO2 incubator for 6 days, then molting was assessed visually using an inverted microscope. Molting was determined in each well by counting the presence of fourth stage larvae (L4s) and empty casts of L3s.
The percent inhibition of molting was calculated based on the number of treated larvae that were able to molt in comparison to the number of control larvae that had successfully molted. IC50 values were calculated using GraphPad Prism v6.0
(http://www.graphpad.com). See Bullman et al., PLoS Negl. Trop.
Adult Brugia malayi transplantation in vivo model procedure.
Gerbils (Meriones unguiculatus) were infected by transplantation of 10 male and 10 female adult Brugia malayi into the peritoneal cavity. Gerbils were acclimated for 7 days prior to treatment. Animals were dosed based on their body weight prior to each dosing. Animals were administered their doses at the same time each day and receive standard rodent laboratory diet and water ad libitum. Gerbils were humanely euthanized at the conclusion of each study. Peritoneal counts of male and female adult B. malayi and visual condition of the peritoneum were recorded.
Brugia pahangi L3 injection in vivo model procedure 8.
Male gerbils (Meriones unguiculatus) approximately 6 weeks of age (50-60 g) were purchased from Charles Rivers (USA, Kingston K62 Gerbils) and infected by intraperitoneal injection with 200 Brugia pahangi third-stage larvae (L3) per animal
(Filariatech, Inc., Athens, GA). Gerbils were housed with no more than 5 animals per cage and maintained 9 months prior to treatment. All gerbils were dosed in accordance with their body weight determined prior to each dosing. Animals were […]

[2] = tested on: G2/M arrest (functional indicator of interaction with mammalian tubulin); assay: mammalian G2/M arrest assay; type: cell-based; conditions: Table 3; read-out: G2/M IC50
Method: as §1
Similarly, changing the point of attachment on the benzoxaborole core from 6- to 5- to afford 8d was also accompanied by increased potency in both the O. volvulus and G2/M arrest assays.

[3] = MDR1-MDCK monolayer permeability assay; type: in vitro ADME; conditions: dog
Method: We characterized the in vitro ADME properties of 8a in preparation for evaluation of this compound in our primary in vivo model in gerbils. […] We were pleased to find that 8a was able to kill 100% of both male and female worms in the gerbil peritoneum when dosed subcutaneously at 100 mg/kg/day for 14 days as a suspension in a nonsolubilizing HEC/Tween vehicle. […] The subsequent assessment of the pharmacokinetics of 8a from these two dosing paradigms provided an interesting observation that we believe to be important in understanding the PK–PD requirements for achieving efficacy in this animal model. […] We had made the same observation in a positive control group using flubendazole at a subcutaneous dose of 10 mg/kg/day for 5 days in the nonsolubilizing HEC/Tween vehicle, namely, that plasma levels of flubendazole were maintained above the in vitro IC50 (4 nM) for over 42 days, consistent with data reported in the literature.[43] […] We next examined 8a in two additional in vivo models, the first where L3 B. pahangi larvae were injected into the peritoneum of gerbils and allowed to develop into adult worms[45] and a second where gerbils were naturally infected by the filarial nematode Litomosoides sigmodontis.[46],[47] In both of these models, 8a was administered subcutaneously at 100 mg/kg for 14 days or orally at 100 mg/kg for 28 days as a suspension. […] Additionally, when plasma obtained from treated animals at necropsy was analyzed for 8a, we observed an outcome similar to that observed in the adult implantation model, e.g., that measurable levels were present at this time point in the subcutaneous-dosed groups but not in the orally dosed groups, weeks after administration of the drug. In a final L. sigmodontis experiment with 8a, we dosed the compound subcutaneously at 300 mg/kg for 7 days as a suspension.

## COC(=O)Nc1nc2cc(C(=O)NCc3ccc4c(c3)B(O)OC4(C)C)ccc2n1C [8e]
[1]
  inhibition at 1 µM: 24%
[2]
  IC50: > 100 µM
[3]
  Papp A→B: 1.2 ×10⁻⁶ cm/s

## COC(=O)Nc1nc2ccc(C(=O)NCc3ccc4c(c3)B(O)OC4(C)C)cc2n1C [8f]
[1]
  inhibition at 1 µM: 29%
[2]
  IC50: > 100 µM
[3]
  Papp A→B: 1.8 ×10⁻⁶ cm/s

## COC(=O)Nc1nc2ccc(C(=O)N(C)Cc3ccc4c(c3)B(O)OC4(C)C)cc2[nH]1 [8g]
[2]
  IC50: 4.1 µM
[3]
  Papp A→B: 0.6 ×10⁻⁶ cm/s

## COC(=O)Nc1nc2c(F)c(C(=O)NCc3ccc4c(c3)B(O)OC4(C)C)ccc2[nH]1 [8i]
[1]
  inhibition at 1 µM: 0%
[2]
  IC50: 16 µM
[3]
  Papp A→B: 2.35 ×10⁻⁶ cm/s

## COC(=O)Nc1nc2ccc(C(=O)N(CCN(C)C)Cc3ccc4c(c3)B(O)OC4(C)C)cc2[nH]1 [8h]
[2]
  IC50: 35 µM
[3]
  Papp A→B: 0.14 ×10⁻⁶ cm/s

— paper PMC7026885, “Macrofilaricidal Benzimidazole–Benzoxaborole Hybrids as an Approach to the Treatment of River Blindness: Part 1. Amide Linked Analogs” (ACS Infectious Diseases, 2019)
